Patent US4182707A, “Somatostatin analogues” (American Home Products Corporation, priority 1978, dated 1980)
Positions of bridges follow the written chain, without caps; N, C: chain ends. Non-standard residues stand in square brackets, D forms with d. Residues, ends and D or L forms follow the SMILES beside them.

How the values were obtained:
growth hormone = assay: Arginine-stimulated growth hormone secretion in Nembutal-anesthetized rats; assay type: in vivo, Albino male rats; conditions: 100 micrograms per kilogram subcutaneous; arginine into the heart 10 min later, blood 5 min after arginine; p<0.01; control 122±26 ng/ml
Method: The activity of the product of the preceding preparatory example, (des-Ala^1 -Gly^2, D-Lys^4, Trp^5, D-Trp^8)Somatostatin was determined by the following procedure:
Albino male rats were administered Nembutal intraperitoneally at a dose of 50 milligrams per kilogram. Fifteen minutes later a subcutaneous injection of the test compound or physiological saline was administered. Ten minutes later 0.5 millileters of arginine (300 milligrams per milliliter, pH 7.2) is injected into the heart. Five minutes after receipt of the arginine the rats are decapitated and blood is collected into trasylol-EDTA. […] Thus, (des-Ala^1 -Gly^2, D-Lys^4, Trp^5, D-Trp^8)Somatostatin, representative of the corresponding D-Arg^4,D-His^4, D-Orn^4, Phe^5, Tyr^5, Leu^5 and Met^5 analogues, their (Ala^1 -Gly^2)somatostatin analogues and the corresponding L-Trp^8 and D-Cys^14 analogues, is an effective agent for selectively reducing secretion of growth hormone at relatively high doses.

total acid output = assay: Four hour pylorus ligated rat test (Shay et al.), anti-secretory activity; assay type: in vivo; conditions: dosage between 0.25 and 2.0 mg/kg, p<0.05
From the text: Therefore, the product of Example 2 is also useful as an anti-secretory agent for the treatment of peptic ulcer disease.

C[C@@H](O)[C@@H]1NC(=O)[C@H](Cc2ccccc2)NC(=O)[C@H]([C@@H](C)O)NC(=O)[C@H](CCCCN)NC(=O)[C@@H](Cc2c[nH]c3ccccc23)NC(=O)[C@H](Cc2ccccc2)NC(=O)[C@H](Cc2ccccc2)NC(=O)[C@H](Cc2c[nH]c3ccccc23)NC(=O)[C@@H](CCCCN)NC(=O)[C@@H](N)CSSC[C@@H](C(=O)O)NC(=O)[C@H](CO)NC1=O [Example 2, L-cysteinyl-D-lysyl-L-tryptophyl-L-phenylalanyl-L-phenylalanyl-D-tryptophyl-L-lysyl-L-threonyl-L-phenylalanyl-L-threonyl-L-seryl-L-cysteine cyclic (1-12) disulfide] (H-C[dK]WFF[dW]KTFTSC-OH; disulfide 1-12)
growth hormone in blood (growth hormone): 24 ± 7 ng/mL | inhibition of total acid output (total acid output): ~50%
